Values after ≈ are worked out from the molar mass of the structure shown. Like-named read-outs stand apart in the source and are kept apart here. Positions of bridges follow the written chain, without caps; N, C: chain ends. Non-standard residues stand in square brackets, D forms with d. Residues, ends and D or L forms follow the SMILES beside them. *: point of attachment. Decanoyl(3R-OH) = CCCCCCC[C@@H](O)CC(=O)*; dDab = NCC[C@@H](N)C(=O)O; Dab = NCC[C@H](N)C(=O)O
Assays:
[1] = In vitro nephrotoxicity, GGT release from primary human kidney cells; assay type: cell-based; details: pH 7.4
Source text: (§1) hPT cells were derived from whole human kidneys procured by the International Institute for the Advancement of Medicine (Edison, N.J., USA). All tissue was scored by a pathologist as normal (i.e., derived from non-cancerous, non-diseased tissue). Cell isolation procedures were based on those originally described by Todd et al. (1996) and modified (Cummings and Lash, 2000; Cummings et al., 2000) with use of sterile conditions (i.e., all instruments and glassware were autoclaved and all buffers were filtered through a 0.2-μm pore-size filter). Renal cortex and outer stripe were cut into slices, washed with sterile PBS, minced, and the pieces were placed in a trypsinization flask filled with 300 ml of sterile, filtered Hanks' buffer, containing 25 mM NaHCO3, 25 mM HEPES, pH 7.4, 0.5 mM EGTA, 0.2% (w/v) bovine serum albumin, 50 μg/ml gentamicin, 1.3 mg/mL collagenase, and 0.59 mg/ml CaCl2), which was filtered prior to use. Whole kidneys were perfused with Wisconsin medium and kept on ice until they arrived at the laboratory, which was usually within 24 h of removal from the donor.
(§2) All buffers were continuously bubbled with 95% O2/5% CO2 and were maintained at 37° C. Minced cortical pieces from whole kidneys were subjected to collagenase digestion for 60 min, after which the supernatant was filtered through a 70-μm mesh filter to remove tissue fragments, centrifuged at 150×g for 7 min, and the pellet resuspended in Dulbecco's Modified Eagle's Medium: Ham's F12 Medium (DMEM/F12; 1/1). Approximately 5 to 7×10^6 cells were obtained per 1 g of human kidney cortical tissue.
(§3) hPT cells were resuspended in 2 mL of DMEM/F12 and diluted to 500 mL with cell culture medium, which was serum-free and hormonally-defined. Composition of this supplemented medium was based on earlier work establishing optimal conditions for primary culture of rat PT cells (Lash et al., 1995). Basal medium was a 1:1 mixture of DMEM/F12. […] Cells were seeded in a volume of 0.5 ml at a density of 50-100 μg protein per cm^2 (0.5-1.0×10^6 cells/ml) on 24-well plates. Cultures were grown at 37° C. in a humidified incubator under an atmosphere of 95% air/5% CO2 at pH 7.4. Cultures were grown to approximately 80%-90% confluence (generally 5-6 days) prior to experiments. Cells were harvested by either scraping the flasks with a Teflon scraper or by brief incubation with Cellstripper (Cellgro, Herndon, Va., USA) (in Ca^2+- and Mg^2+-free Hanks' buffer).
Release of gamm-glutanyltransferase was assessed according to Orlowski, M., Meister, A. 1963. γ-Glutamyl-p-nitroanilide: A new convenient substrate for determination and study of L- and D-γ-glutamyltranspeptidase activities (Biochim. Biophys. Acta 73: 679-681.)
A 2.5 mM substrate Solution was prepared from 67 mg γ-glutamyl-p-nitroanilide+264 mg glycylglycine in 100 mL of 0.05 M Tris, pH 8.2 (50 mM Tris, pH 8.2: 605 mg Tris/HCl per 100 mL).
For the assay in 96-well plates, 6-μL of sample and 0.3 mL substrate solution were added to each well. The absorbance was measured at 410 nm for the appearance of product, p-nitroanilide (molar extinction=8800 M^−1 cm^−1).

[2] = system: S. aureus ATCC 25923, MSSA; details: ATCC 25923
Procedure, shortened: (§4)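 Mid-log cultures grown in Mueller Hinton broth at 37° C were tested by 2-fold broth microdilution at 5×10^5 CFU/mL final. Compounds were dissolved in water and tested over a final range of 32 to 0.015 μg/mL.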

E. coli ATCC 25922 = details: ATCC 25922
Procedure, shortened: as §4

[3] = system: K. pneumoniae GN_102 PmxR; details: GN 102 PmxR
Procedure, shortened: as §4

[4] = system: K. pneumoniae ATCC BAA-2146, NDM-1 pos; details: ATCC BAA-2146
Procedure, shortened: as §4

P. aeruginosa ATCC 27853 = details: ATCC 27853
Procedure, shortened: as §4

[5] = system: K. pneumoniae ATCC 700603, MDR; details: ATCC 700603
Procedure, shortened: as §4

[6] = system: P. aeruginosa GN_105, PmxR; details: GN 105, PmxR
Procedure, shortened: as §4

[7] = system: K. pneumoniae GN_106, PmxR; details: GN 106, PmxR
Procedure, shortened: as §4

[8] = system: P. aeruginosa GN_043, PmxR; details: polymyxin-resistant
Procedure, shortened: as §4

K. pneumoniae ATCC 13883 = details: ATCC 13883
Procedure, shortened: as §4

A. baumannii GN_093 PmxR = details: GN 093 PmxR
Procedure, shortened: as §4

A. baumannii ATCC 19606 = details: ATCC 19606
Procedure, shortened: as §4

[9] = In vitro nephrotoxicity, LDH release from primary human kidney cells; assay type: cell-based; details: pH 7.4
Source text: as §1, §2, §3

Neisseria gonorrhoeae = test: MIC determination, Neisseria gonorrhoeae; assay type: cell-based; details: strain FA19 ATCC BAA-1838
Method: Bacteria were either obtained from American Type Culture Collection (ATCC; Manassas, Va., USA) or independent academic clinical isolate collections, as listed in Table 18 below. Bacteria were cultured in Nutrient broth (NB; Bacto Laboratories, catalogue No. 234000) or Mueller Hinton broth (MHB; Bacto Laboratories, catalogue No. 211443) at 37° C. overnight with shaking (˜180 RPM). A sample of each culture was then diluted 50-fold in fresh MHB and incubated at 37° C. for 2-3 h with shaking (˜180 RPM). Compound stock solutions were prepared as 0.64 mg/mL or 2.56 mg/mL in water. The compounds, at twice the final desired concentration, were serially diluted 2-fold across the wells of 96-well plates (Polystyrene, Corning, catalogue No. 3370). Mid-log phase bacterial cultures (after 2-3 h incubation) were diluted to a final concentration of 1×10^6 colony forming units (CFU)/mL, and 50 μL was added to each well giving a final cell density of 5×10^5 and a compound concentration range of 32 μg/mL to 0.015 μg/mL (128-0.06 μg/mL against P. aeruginosa PA9704).

Structure (SMILES)	CC50 [1]	MIC, E. coli ATCC 25922 (E. coli ATCC 25922)	MIC, K. pneumoniae ATCC BAA-2146, NDM-1 pos [4]	MIC, P. aeruginosa ATCC 27853 (P. aeruginosa ATCC 27853)	MIC, K. pneumoniae ATCC 700603, MDR [5]	MIC, K. pneumoniae ATCC 13883 (K. pneumoniae ATCC 13883)	MIC, A. baumannii ATCC 19606 (A. baumannii ATCC 19606)	CC50 [9]	MIC K. pneumoniae GN_102 PmxR [3]	MIC K. pneumoniae GN_106, PmxR [7]	MIC A. baumannii GN_093 PmxR (A. baumannii GN_093 PmxR)	further results
CCCCCCC[C@@H](O)CC(=O)N[C@H](CCN)C(=O)N[C@H]1CCNC(=O)[C@H](CC(C)C)NC(=O)[C@H](CCN)NC(=O)[C@H](CCNC(=O)[C@@H](N)CCCNC(=N)N)NC(=O)[C@H](CC(C)C)NC(=O)[C@@H](Cc2ccccc2)NC(=O)[C@H](CCN)NC1=O [compound 6654, 3(R)OH-nC9CO-D-Dab-cyc[L-Dab-L-Dab-D-Phe-L-Leu-L-Dab(L-Arg)-L-Dab-L-Leu]] ({Decanoyl(3R-OH)}-[dDab][Dab][Dab][dF]L[Dab](Arg)[Dab]L; lactam 2-C)	> 128 µg/mL	4 µg/mL (≈ 3.33 µM)	8 µg/mL (≈ 6.66 µM)	4 µg/mL (≈ 3.33 µM)	4 µg/mL (≈ 3.33 µM)	4 µg/mL (≈ 3.33 µM)	8 µg/mL (≈ 6.66 µM)	> 128 µg/mL				MIC, S. Aureus ATCC 25923, MSSA [2]: 16 µg/mL (≈ 13.3 µM); MIC, K. pneumoniae Cl Koprana 10065 0661:1, PmxR [3]: 8 µg/mL (≈ 6.66 µM); MIC, P. aeruginosa PA9704, PmxR [6]: 2 µg/mL (≈ 1.67 µM); MIC, K. pneumoniae Cl 138-16347-20362, PmxR [7]: 16 µg/mL (≈ 13.3 µM); MIC, P. aeruginosa FADDI-PA070, PmxR ([8]; Table 5): 2 µg/mL (≈ 1.67 µM); MIC, A. baumannii Cl Ptyela 10073 4512:2, PmxR (A. baumannii GN_093 PmxR): 8 µg/mL (≈ 6.66 µM)
CCCCCCC[C@@H](O)CC(=O)N[C@@H](CCN)C(=O)N[C@H]1CCNC(=O)[C@H](CC(C)C)NC(=O)[C@H](CCN)NC(=O)[C@H](CCN)NC(=O)[C@H](CC(C)C)NC(=O)[C@@H](Cc2ccccc2)NC(=O)[C@H](CCN)NC1=O [compound 8638, 3(R)OH-nC9CO-L-Dab-cyc[L-Dab-L-DAB-D-Phe-L-Leu-L-Dab-L-Dab-L-Leu]] ({Decanoyl(3R-OH)}-[Dab][Dab][Dab][dF]L[Dab][Dab]L; lactam 2-C)	> 128 µg/mL	2 µg/mL (≈ 1.92 µM)	8 µg/mL (≈ 7.66 µM)	1 µg/mL (≈ 0.958 µM)	8 µg/mL (≈ 7.66 µM)	4 µg/mL (≈ 3.83 µM)	32 µg/mL (≈ 30.6 µM)	> 128 µg/mL	4 µg/mL (≈ 3.83 µM)	4 µg/mL (≈ 3.83 µM)	32 µg/mL (≈ 30.6 µM)	MIC, S. aureus ATCC 25923, MSSA [2]: 16 µg/mL (≈ 15.3 µM); MIC P. aeruginosa GN_105, PmxR [6]: 2 µg/mL (≈ 1.92 µM); MIC P. aeruginosa GN_043, PmxR ([8]; Table 6): 8 µg/mL (≈ 7.66 µM)
CCCCCCC[C@@H](O)CC(=O)N[C@H](CCN)C(=O)N[C@H]1CCNC(=O)[C@H](CC(C)C)NC(=O)[C@H](CCCNC(=N)N)NC(=O)[C@H](CCN)NC(=O)[C@H](CC(C)C)NC(=O)[C@@H](Cc2ccccc2)NC(=O)[C@H](CCN)NC1=O [compound 8643, 3(R)OH-nC9CO-D-Dab-cyc[L-Dab-L-DAB-D-Phe-L-Leu-L-Dab-L-Arg-L-Leu]] ({Decanoyl(3R-OH)}-[dDab][Dab][Dab][dF]L[Dab]RL; lactam 2-C)	> 128 µg/mL							> 128 µg/mL	2 µg/mL (≈ 1.82 µM)	2 µg/mL (≈ 1.82 µM)	16 µg/mL (≈ 14.5 µM)	MIC S. aureus ATCC 25923, MSSA [2]: 16 µg/mL (≈ 14.5 µM); MIC E. coli ATCC 25922 (E. coli ATCC 25922): 1 µg/mL (≈ 0.909 µM); MIC K. pneumoniae ATCC BAA-2146, NDM-1 pos [4]: 2 µg/mL (≈ 1.82 µM); MIC P. aeruginosa ATCC 27853 (P. aeruginosa ATCC 27853): 2 µg/mL (≈ 1.82 µM); MIC K. pneumoniae ATCC 700603, MDR [5]: 2 µg/mL (≈ 1.82 µM); MIC P. aeruginosa GN_043, PmxR [8]: 2 µg/mL (≈ 1.82 µM); MIC K. pneumoniae ATCC 13883 (K. pneumoniae ATCC 13883): 2 µg/mL (≈ 1.82 µM); MIC A. baumannii ATCC 19606 (A. baumannii ATCC 19606): 4 µg/mL (≈ 3.63 µM); MIC N. gonorrhoeae FA19 ATCC BAA-1838 (Neisseria gonorrhoeae): 1.56 µg/mL (≈ 1.42 µM)

From patent US11279733B2, “Peptide antibiotics” (priority 2017, dated 2022)
